From US6706664B1, “Benzoxazole compounds, process for the preparation thereof and herbicides” (UBE Industries, Ltd., priority 1999, dated 2004)

How the values were obtained:
Design in all cases: key: 0: normal development; 1: Less damaged; 2: Slightly damaged; 3: Moderately damaged; 4: Severely damaged; 5: All killed
velvetleaf [1] = assay: Soil treatment test for upland field; type: in vivo, Abutilon theophrasti; conditions: 500 g/ha, glass house 25° C., 3 weeks
Outline: (§1)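 Soil treatment, 500 g/ha, sprayed onto soil surface after sowing; alluvial Ube soil; 0.05% surfactant in diluent; glasshouse, avg 25° C, 3 wk; visual score 0–5 (5 = all killed).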

Large crabgrass = assay: Soil treatment test for upland field; type: in vivo, Digitaria adscendens; conditions: 500 g/ha, glass house 25° C., 3 weeks
Outline: as §1

common lambsquartes [2] = assay: Soil treatment test for upland field; type: in vivo, Chenopodium album; conditions: 500 g/ha, glass house 25° C., 3 weeks
Outline: as §1

green foxtail [3] = assay: Foliar spread test for upland field; type: in vivo, Setaria viridis; conditions: foliar spray 500 ppm, 3 weeks, rank vs non-treated
Outline: (§2)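 Wettable powders at 500 ppm, with 0.5% surfactant, were sprayed uniformly over plants raised for roughly 2 weeks in glasshouse pots of volcanic ash soil. Herbicidal damage rated on a 0–5 scale (5 = all killed) after a further 3 weeks at an average 25 °C.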

blackgrass [4] = assay: Soil treatment test for upland field; type: in vivo, Alopecurus aegualis; conditions: 500 g/ha, glass house 25° C., 3 weeks
Outline: as §1

blackgrass [5] = assay: Foliar spread test for upland field; type: in vivo, Alopecurus aegualis; conditions: foliar spray 500 ppm, 3 weeks, rank vs non-treated
Outline: as §2

monochoria = assay: Herbicidal test for paddy field; type: in vivo, Monochoria vaginalis; conditions: paddy field pot, 500 g/ha dropwise at 1.5 leaf stage of barnyardgrass, 3 weeks, rank vs non-treated
Outline: (§3)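 Scores ran from 0 (normal development) to 5 (all killed) against untreated pots, judged after 3 weeks in a glasshouse averaging 25° C. Compound, as wettable powder diluted in water with 0.05% surfactant, was applied dropwise into 3 cm-deep paddy water at 500 g/ha. Application was at the 1.5-leaf stage of barnyardgrass.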

velvetleaf [6] = assay: Foliar spread test for upland field; type: in vivo, Abutilon theophrasti; conditions: foliar spray 500 ppm, 3 weeks, rank vs non-treated
Outline: as §2

barnyardgrass [7] = assay: Herbicidal test for paddy field; type: in vivo, Echinochloa crusgalli; conditions: paddy field pot, 500 g/ha dropwise at 1.5 leaf stage of barnyardgrass, 3 weeks, rank vs non-treated
Outline: as §3

livid amaranth [8] = assay: Foliar spread test for upland field; type: in vivo, Amaranthus lividus; conditions: foliar spray 500 ppm, 3 weeks, rank vs non-treated
Outline: as §2

annual bluegrass [9] = assay: Foliar spread test for upland field; type: in vivo, Poa annua; conditions: foliar spray 500 ppm, 3 weeks, rank vs non-treated
Outline: as §2

common lambsquartes [10] = assay: Foliar spread test for upland field; type: in vivo, Chenopodium album; conditions: foliar spray 500 ppm, 3 weeks, rank vs non-treated
Outline: as §2

solgum = assay: Foliar spread test for upland field; type: in vivo; conditions: foliar spray 500 ppm, 3 weeks, rank vs non-treated
Outline: (§4)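 Two-week-old glasshouse seedlings on volcanic ash soil were treated by foliar spray at 500 ppm, with 0.5% surfactant in the diluent. Effects were graded visually after three weeks, from 0 for no injury to 5 for complete kill.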

corn = assay: Foliar spread test for upland field; type: in vivo; conditions: foliar spray 500 ppm, 3 weeks, rank vs non-treated
Outline: as §4

green foxtail [11] = assay: Soil treatment test for upland field; type: in vivo, Setaria viridis; conditions: 500 g/ha, glass house 25° C., 3 weeks
Outline: as §1

annual bluegrass [12] = assay: Soil treatment test for upland field; type: in vivo, Poa annua; conditions: 500 g/ha, glass house 25° C., 3 weeks
Outline: as §1

livid amaranth [13] = assay: Soil treatment test for upland field; type: in vivo, Amaranthus lividus; conditions: 500 g/ha, glass house 25° C., 3 weeks
Outline: as §1

barnyardgrass [14] = assay: Soil treatment test for upland field; type: in vivo, Echinochloa crusgalli; conditions: 500 g/ha, glass house 25° C., 3 weeks
Outline: as §1

Row | Structure (SMILES) | Effects Velvetleaf (velvetleaf [1]) | Effects Large crabgrass (Large crabgrass) | Effects Common lambsquarters (common lambsquartes [2]) | Effects Green foxtail (green foxtail [3]) | Effects Blackgrass (blackgrass [4]) | Effects Blackgrass (blackgrass [5]) | Effect Monochoria (monochoria) | Effects Velvetleaf (velvetleaf [6]) | Effect Barnyardgrass (barnyardgrass [7]) | Effects Livid amaranth (livid amaranth [8]) | Effects Annual bluegrass (annual bluegrass [9]) | Effects Common lambsquarters (common lambsquartes [10]) | Effects Solgum (solgum) | Effects Corn (corn) | Effects Green foxtail (green foxtail [11]) | Effects Annual bluegrass (annual bluegrass [12]) | Effects Livid amaranth (livid amaranth [13]) | Effects Barnyardgrass (barnyardgrass [14])
1 | CCC(Oc1ccc(F)c(C(F)(F)F)c1)c1nc2cc(C(F)(F)F)ccc2o1 (stereo not drawn) [Compound 197] | 5 | 5 | 4 | 5 | 5 | 4 | 5 | 3 | 4 | 4 | 2 | 4 | 2 | 4 | 5 | 5 | 5 | 5
2 | CCCC(Oc1cccc(C(F)(F)F)c1)c1nc2cc(C#N)c(Cl)cc2o1 (stereo not drawn) [Compound 532] | 5 | 5 | 5 | 5 | 5 | 4 | 5 | 3 | 5 | 5 | 4 | 5 | 2 | 2 | 5 | 5 | 5 | 5
3 | CCCC(Oc1ccc(F)c(C(F)(F)F)c1)c1nc2cc(C(F)(F)F)ccc2o1 (stereo not drawn) [Compound 199] | 5 | 5 | 5 | 2 | 2 | 2 | 5 | 4 | 4 | 4 | 2 | 4 | 1 | 2 | 5 | 5 | 5 | 2
4 | CCC(Oc1ccc(F)c(C(F)(F)F)c1)c1nc2cc(Cl)c(C)cc2o1 (stereo not drawn) [Compound 340] | 5 | 5 | 5 | 4 | 4 | 2 | 5 | 4 | 5 | 4 | 3 | 4 | 2 | 2 | 5 | 5 | 5 | 4
5 | CCC(Oc1cccc(C(F)(F)F)c1)c1nc2cc(Cl)c(C)cc2o1 (stereo not drawn) [Compound 339, 1-(5-chloro-6-methylbenzoxazol-2-yl)-1-(3-(trifluoromethyl)phenoxy)propane] | 4 | 5 | 4 | 2 | 3 | 2 | 5 | 2 | 4 | 4 | 2 | 4 | 1 | 2 | 5 | 5 | 5 | 3
6 | CCCC(Oc1cccc(C(F)(F)F)c1)c1nc2cc(Cl)ccc2o1 (stereo not drawn) [Compound 142, 1-(5-chlorobenzoxazol-2-yl)-1-(3-(trifluoromethyl)phenoxy)butane] | 5 | 5 | 5 | 2 | 5 | 2 | 5 | 3 | 3 | 4 | 3 | 4 | 2 | 3 | 5 | 5 | 5 | 3
7 | CCC(Oc1cccc(OC(F)(F)F)c1)c1nc2cc([N+](=O)[O-])ccc2o1 (stereo not drawn) [Compound 450] | 5 | 5 | 4 | 3 | 5 | 3 | 5 | 3 | 4 | 4 | 4 | 4 | 3 | 3 | 5 | 5 | 5 | 5
8 | CCC(Oc1cccc(C(F)(F)F)c1)c1nc2cc(F)c(C(F)(F)F)cc2o1 (stereo not drawn) [Compound 471] | 5 | 5 | 5 | 5 | 5 | 3 | 5 | 3 | 5 | 5 | 3 | 5 | 3 | 2 | 5 | 5 | 5 | 5
9 | CCC(Oc1ccc(F)c(C(F)(F)F)c1)c1nc2cc([N+](=O)[O-])ccc2o1 (stereo not drawn) [Compound 177] | 5 | 5 | 4 | 5 | 5 | 2 | 5 | 4 | 5 | 5 | 4 | 4 | 2 | 2 | 5 | 5 | 5 | 3
